{"source": "PubChem BioAssay (NCI)", "assay_in_all_cases": "growth of human tumour cells (NCI), 48 h", "key": {"[1]": {"test_system": "NCI-H460 lung"}, "[2]": {"test_system": "OVCAR-5 ovarian"}, "[3]": {"test_system": "LOX IMVI melanoma"}, "[4]": {"test_system": "SN12C renal"}, "[5]": {"test_system": "CCRF-CEM leukemia"}, "[6]": {"test_system": "U251 CNS"}, "[7]": {"test_system": "HCT-116 colon"}, "[8]": {"test_system": "HOP-92 NSCLC"}, "[9]": {"test_system": "HT29 colon"}, "[10]": {"test_system": "TK-10 renal"}, "[11]": {"test_system": "SK-OV-3 ovarian"}, "[12]": {"test_system": "A498 renal"}, "[13]": {"test_system": "UACC-62 melanoma"}, "[14]": {"test_system": "MOLT-4 leukemia"}, "[15]": {"test_system": "UO-31 renal"}, "[16]": {"test_system": "HL-60(TB) leukemia"}, "[17]": {"test_system": "KM12 colon"}, "[18]": {"test_system": "UACC-257 melanoma"}, "[19]": {"test_system": "SNB-19 CNS"}, "[20]": {"test_system": "HS 578T breast"}, "[21]": {"test_system": "PC-3 prostate"}, "[22]": {"test_system": "NCI/ADR-RES ovarian"}, "[23]": {"test_system": "RPMI-8226 leukemia"}, "[24]": {"test_system": "BT-549 breast"}, "[25]": {"test_system": "M14 melanoma"}, "[26]": {"test_system": "786-0 renal"}, "[27]": {"test_system": "SK-MEL-2 melanoma"}, "[28]": {"test_system": "CAKI-1 renal"}, "[29]": {"test_system": "A549 NSCLC"}, "[30]": {"test_system": "MCF7 breast"}, "[31]": {"test_system": "ACHN renal"}, "[32]": {"test_system": "MALME-3M melanoma"}, "[33]": {"test_system": "NCI-H23 lung"}, "[34]": {"test_system": "HCT-15 colon"}, "[35]": {"test_system": "IGROV1 ovarian"}, "[36]": {"test_system": "MDA-MB-231 breast"}, "[37]": {"test_system": "SF-268 CNS"}, "[38]": {"test_system": "HOP-62 NSCLC"}, "[39]": {"test_system": "SR leukemia"}, "[40]": {"test_system": "DU-145 prostate"}, "[41]": {"test_system": "EKVX NSCLC"}, "[42]": {"test_system": "OVCAR-4 ovarian"}, "[43]": {"test_system": "SF-295 CNS"}, "[44]": {"test_system": "OVCAR-8 ovarian"}, "[45]": {"test_system": "MDA-N"}, "[46]": {"test_system": "HCC-2998 colon"}, "[47]": {"test_system": "RXF 393 renal"}, "[48]": {"test_system": "MDA-MB-435"}, "[49]": {"test_system": "K-562 leukemia"}, "[50]": {"test_system": "SW-620 colon"}, "[51]": {"test_system": "SNB-75 CNS"}, "[52]": {"test_system": "NCI-H226 lung"}, "[53]": {"test_system": "OVCAR-3 ovarian"}, "[54]": {"test_system": "SK-MEL-5 melanoma"}, "[55]": {"test_system": "COLO 205 colon"}, "[56]": {"test_system": "NCI-H522 lung"}, "[57]": {"test_system": "T-47D breast"}, "[58]": {"test_system": "SK-MEL-28 melanoma"}}, "note": "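Cultured in 96-well plates, cells were exposed to test compound for 48 hours across five concentrations. TGI denotes the concentration required for complete inhibition of growth.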", "data": [{"smiles": "O=c1c(Cc2ccc(Cl)cc2)nnc2sc(-c3ccc([N+](=O)[O-])cc3)nn12", "values": [{"measurement": "TGI", "setting": "[1]", "result": 44.1, "unit": "µM"}, {"measurement": "TGI", "setting": "[2]", "result": 88.1, "unit": "µM"}, {"measurement": "TGI", "setting": "[3]", "result": "> 100", "unit": "µM"}, {"measurement": "TGI", "setting": "[4]", "result": "> 100", "unit": "µM"}, {"measurement": "TGI", "setting": "[5]", "result": 55.8, "unit": "µM"}, {"measurement": "TGI", "setting": "[6]", "result": "> 100", "unit": "µM"}, {"measurement": "TGI", "setting": "[7]", "result": 48.8, "unit": "µM"}, {"measurement": "TGI", "setting": "[8]", "result": "> 100", "unit": "µM"}, {"measurement": "TGI", "setting": "[9]", "result": "> 100", "unit": "µM"}, {"measurement": "TGI", "setting": "[10]", "result": 68.4, "unit": "µM"}, {"measurement": "TGI", "setting": "[11]", "result": "> 100", "unit": "µM"}, {"measurement": "TGI", "setting": "[12]", "result": 63.6, "unit": "µM"}, {"measurement": "TGI", "setting": "[13]", "result": 34, "unit": "µM"}, {"measurement": "TGI", "setting": "[14]", "result": "> 100", "unit": "µM"}, {"measurement": "TGI", "setting": "[15]", "result": "> 100", "unit": "µM"}, {"measurement": "TGI", "setting": "[16]", "result": 49.6, "unit": "µM"}, {"measurement": "TGI", "setting": "[17]", "result": "> 100", "unit": "µM"}, {"measurement": "TGI", "setting": "[18]", "result": 39.5, "unit": "µM"}, {"measurement": "TGI", "setting": "[19]", "result": "> 100", "unit": "µM"}, {"measurement": "TGI", "setting": "[20]", "result": "> 100", "unit": "µM"}, {"measurement": "TGI", "setting": "[21]", "result": 47.2, "unit": "µM"}, {"measurement": "TGI", "setting": "[22]", "result": "> 100", "unit": "µM"}, {"measurement": "TGI", "setting": "[23]", "result": 89.9, "unit": "µM"}, {"measurement": "TGI", "setting": "[24]", "result": 55.6, "unit": "µM"}, {"measurement": "TGI", "setting": "[25]", "result": 39.2, "unit": "µM"}, {"measurement": "TGI", "setting": "[26]", "result": "> 100", "unit": "µM"}, {"measurement": "TGI", "setting": "[27]", "result": 33.7, "unit": "µM"}, {"measurement": "TGI", "setting": "[28]", "result": "> 100", "unit": "µM"}, {"measurement": "TGI", "setting": "[29]", "result": "> 100", "unit": "µM"}, {"measurement": "TGI", "setting": "[30]", "result": 53, "unit": "µM"}, {"measurement": "TGI", "setting": "[31]", "result": 87.3, "unit": "µM"}, {"measurement": "TGI", "setting": "[32]", "result": 55.5, "unit": "µM"}, {"measurement": "TGI", "setting": "[33]", "result": 54.5, "unit": "µM"}, {"measurement": "TGI", "setting": "[34]", "result": 29.3, "unit": "µM"}, {"measurement": "TGI", "setting": "[35]", "result": "> 100", "unit": "µM"}, {"measurement": "TGI", "setting": "[36]", "result": 66.3, "unit": "µM"}, {"measurement": "TGI", "setting": "[37]", "result": "> 100", "unit": "µM"}, {"measurement": "TGI", "setting": "[38]", "result": "> 100", "unit": "µM"}, {"measurement": "TGI", "setting": "[39]", "result": 60.4, "unit": "µM"}, {"measurement": "TGI", "setting": "[40]", "result": "> 100", "unit": "µM"}, {"measurement": "TGI", "setting": "[41]", "result": 64.4, "unit": "µM"}, {"measurement": "TGI", "setting": "[42]", "result": "> 100", "unit": "µM"}, {"measurement": "TGI", "setting": "[43]", "result": "> 100", "unit": "µM"}, {"measurement": "TGI", "setting": "[44]", "result": "> 100", "unit": "µM"}, {"measurement": "TGI", "setting": "[45]", "result": "> 100", "unit": "µM"}, {"measurement": "TGI", "setting": "[46]", "result": 42.6, "unit": "µM"}, {"measurement": "TGI", "setting": "[47]", "result": 74.1, "unit": "µM"}, {"measurement": "TGI", "setting": "[48]", "result": 58.5, "unit": "µM"}, {"measurement": "TGI", "setting": "[49]", "result": "> 100", "unit": "µM"}, {"measurement": "TGI", "setting": "[50]", "result": 80.8, "unit": "µM"}]}, {"smiles": "COc1cc(C(c2cc3c(cc2O)OCO3)N2CCCC2)cc(OC)c1OC", "note": "(configuration not stated)", "values": [{"measurement": "TGI", "setting": "[2]", "result": 89.7, "unit": "µM"}, {"measurement": "TGI", "setting": "[51]", "result": 32.7, "unit": "µM"}, {"measurement": "TGI", "setting": "[3]", "result": 31.9, "unit": "µM"}, {"measurement": "TGI", "setting": "[4]", "result": 45.9, "unit": "µM"}, {"measurement": "TGI", "setting": "[5]", "result": 5.95, "unit": "µM"}, {"measurement": "TGI", "setting": "[6]", "result": 37.8, "unit": "µM"}, {"measurement": "TGI", "setting": "[7]", "result": 29.8, "unit": "µM"}, {"measurement": "TGI", "setting": "[52]", "result": 33.8, "unit": "µM"}, {"measurement": "TGI", "setting": "[8]", "result": 20, "unit": "µM"}, {"measurement": "TGI", "setting": "[9]", "result": 28, "unit": "µM"}, {"measurement": "TGI", "setting": "[10]", "result": 37.5, "unit": "µM"}, {"measurement": "TGI", "setting": "[11]", "result": "> 100", "unit": "µM"}, {"measurement": "TGI", "setting": "[12]", "result": 36.8, "unit": "µM"}, {"measurement": "TGI", "setting": "[13]", "result": 33.9, "unit": "µM"}, {"measurement": "TGI", "setting": "[53]", "result": 34.9, "unit": "µM"}, {"measurement": "TGI", "setting": "[14]", "result": 20.7, "unit": "µM"}, {"measurement": "TGI", "setting": "[15]", "result": 28.1, "unit": "µM"}, {"measurement": "TGI", "setting": "[16]", "result": 6.06, "unit": "µM"}, {"measurement": "TGI", "setting": "[17]", "result": 37.2, "unit": "µM"}, {"measurement": "TGI", "setting": "[18]", "result": 36.6, "unit": "µM"}, {"measurement": "TGI", "setting": "[19]", "result": 38.2, "unit": "µM"}, {"measurement": "TGI", "setting": "[54]", "result": 41.5, "unit": "µM"}, {"measurement": "TGI", "setting": "[21]", "result": 34.7, "unit": "µM"}, {"measurement": "TGI", "setting": "[22]", "result": 56.4, "unit": "µM"}, {"measurement": "TGI", "setting": "[23]", "result": 41.5, "unit": "µM"}, {"measurement": "TGI", "setting": "[25]", "result": "> 100", "unit": "µM"}, {"measurement": "TGI", "setting": "[26]", "result": 28.8, "unit": "µM"}, {"measurement": "TGI", "setting": "[27]", "result": 40, "unit": "µM"}, {"measurement": "TGI", "setting": "[28]", "result": 27, "unit": "µM"}, {"measurement": "TGI", "setting": "[29]", "result": 48.9, "unit": "µM"}, {"measurement": "TGI", "setting": "[55]", "result": 26.5, "unit": "µM"}, {"measurement": "TGI", "setting": "[30]", "result": 63.8, "unit": "µM"}, {"measurement": "TGI", "setting": "[56]", "result": 11.5, "unit": "µM"}, {"measurement": "TGI", "setting": "[31]", "result": 28.8, "unit": "µM"}, {"measurement": "TGI", "setting": "[32]", "result": 20.7, "unit": "µM"}, {"measurement": "TGI", "setting": "[33]", "result": 33.1, "unit": "µM"}, {"measurement": "TGI", "setting": "[34]", "result": 29.2, "unit": "µM"}, {"measurement": "TGI", "setting": "[35]", "result": 27.8, "unit": "µM"}, {"measurement": "TGI", "setting": "[36]", "result": 31.3, "unit": "µM"}, {"measurement": "TGI", "setting": "[57]", "result": 45.7, "unit": "µM"}, {"measurement": "TGI", "setting": "[58]", "result": 41.4, "unit": "µM"}, {"measurement": "TGI", "setting": "[38]", "result": 97.5, "unit": "µM"}, {"measurement": "TGI", "setting": "[40]", "result": 36, "unit": "µM"}, {"measurement": "TGI", "setting": "[41]", "result": 30, "unit": "µM"}, {"measurement": "TGI", "setting": "[42]", "result": 34.2, "unit": "µM"}, {"measurement": "TGI", "setting": "[43]", "result": 36, "unit": "µM"}, {"measurement": "TGI", "setting": "[44]", "result": 34, "unit": "µM"}, {"measurement": "TGI", "setting": "[45]", "result": 27.9, "unit": "µM"}, {"measurement": "TGI", "setting": "[46]", "result": 88.1, "unit": "µM"}, {"measurement": "TGI", "setting": "[48]", "result": 32.5, "unit": "µM"}, {"measurement": "TGI", "setting": "[49]", "result": 21.1, "unit": "µM"}, {"measurement": "TGI", "setting": "[50]", "result": "> 100", "unit": "µM"}]}]}
